Measurements reported in ChEMBL document CHEMBL2385040, “Synthesis and antiproliferative activity of 4-substituted-piperazine-1-carbodithioate derivatives of 2,4-diaminoquinazoline” (Eur J Med Chem, 2013).
Activity calls are given as the source filed them. No cut-off for these calls is given here.

Experiments:
A549 [1] = experiment: cells; conditions: Homo sapiens, A549, 72 h
Description: Antiproliferative activity against human A549 cells after 72 hrs by MTT assay

HeLa [2] = experiment: Antiproliferative activity against human HeLa cells after 72 hrs by MTT assay; type: functional, cell-based
MCF7 [3] = experiment: cells; conditions: Homo sapiens, MCF7, 72 h
HCT-116 [4] = experiment: Antiproliferative activity against human HCT116 cells after 72 hrs by MTT assay; type: functional, cell-based; conditions: HCT-116, 72 h
HT-29 [5] = experiment: cells; conditions: Homo sapiens, HT-29, 72 h
HT-29 [6] = experiment: Antiproliferative activity against human HT-29 cells at 20 uM after 72 hrs by MTT assay relative to control; type: functional, cell-based; conditions: HT-29, 72 h
HeLa [7] = experiment: Antiproliferative activity against human HeLa cells at 20 uM after 72 hrs by MTT assay relative to control; type: functional, cell-based
HCT-116 [8] = experiment: Antiproliferative activity against human HCT116 cells at 20 uM after 72 hrs by MTT assay relative to control; type: functional, cell-based; conditions: HCT-116, 72 h
A549 [9] = experiment: Antiproliferative activity against human A549 cells at 20 uM after 72 hrs by MTT assay relative to control; type: functional, cell-based; conditions: A549, 72 h
[10] = target: T1, Dihydrofolate reductase (Homo sapiens) (UniProt P00374); experiment: Inhibition of human dihydrofolate reductase at 500 nM by spectrophotometric analysis relative to control
T1 sequence (whole entry): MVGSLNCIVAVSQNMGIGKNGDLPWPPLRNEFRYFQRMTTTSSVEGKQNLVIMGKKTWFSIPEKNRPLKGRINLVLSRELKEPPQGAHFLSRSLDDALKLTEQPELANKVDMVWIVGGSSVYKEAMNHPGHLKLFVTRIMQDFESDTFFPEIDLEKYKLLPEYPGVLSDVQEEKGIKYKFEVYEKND

HCT-116 [11] = experiment: Cell cycle arrest in human HCT116 cells assessed as accumulation at G0/G1 phase at IC50 after 24 hrs by propidium iodide staining-based FACS flow cytometric analysis (reference value: 63.07%); type: functional
[12] = target: Thymidylate synthase (Homo sapiens) (UniProt P04818); experiment: Inhibition of human recombinant His-tagged thymidylate synthase assessed as N5,N10-methylenetetrahydrofolate oxidation to dihydrofolate at 50 uM after 20 mins by UV spectrophotometric analysis relative to control
Chain of Thymidylate synthase (Homo sapiens) (P04818 2-313 limits assumed): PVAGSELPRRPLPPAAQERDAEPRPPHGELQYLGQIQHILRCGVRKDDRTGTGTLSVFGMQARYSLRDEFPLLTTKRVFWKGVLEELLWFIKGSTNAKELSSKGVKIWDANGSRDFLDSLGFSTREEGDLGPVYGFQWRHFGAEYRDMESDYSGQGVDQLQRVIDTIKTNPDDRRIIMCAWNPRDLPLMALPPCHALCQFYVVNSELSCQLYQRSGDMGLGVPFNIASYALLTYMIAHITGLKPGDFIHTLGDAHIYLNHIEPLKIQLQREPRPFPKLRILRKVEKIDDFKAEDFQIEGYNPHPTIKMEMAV

HCT-116 [13] = experiment: Induction of DNA damage in human HCT116 cells assessed as G2/M checkpoint activation measured as reduction in mitotic index after 2 hrs by immunofluorescence assay; type: functional
HCT-116 [14] = experiment: Induction of DNA damage in human HCT116 cells assessed as formation of marker ser-139 phosphorylated H2AX nuclear foci after 2 hrs by immunofluorescence assay; type: functional, cell-based
Dihydrofolate reductase = target: T2, Dihydrofolate reductase (Homo sapiens, UniProt P00374); experiment: Inhibition of human dihydrofolate reductase by spectrophotometric analysis
T2 sequence (P00374 whole entry): T1 sequence (whole entry)

HCT-116 [15] = experiment: Cell cycle arrest in human HCT116 cells assessed as accumulation at S phase at IC50 after 24 hrs by propidium iodide staining-based FACS flow cytometric analysis (reference value: 25.39%); type: functional
HCT-116 [16] = experiment: Cell cycle arrest in human HCT116 cells assessed as accumulation at G2/M phase at IC50 after 24 hrs by propidium iodide staining-based FACS flow cytometric analysis (reference value: 11.54%); type: functional
MCF7 [17] = experiment: Antiproliferative activity against human MCF7 cells at 20 uM after 72 hrs by MTT assay relative to control; type: functional, cell-based; conditions: MCF7, 72 h
[18] = target: Thymidylate synthase (Homo sapiens) (UniProt P04818); conditions: 1 uM
Description: Inhibition of human recombinant His-tagged thymidylate synthase assessed as N5,N10-methylenetetrahydrofolate oxidation to dihydrofolate at 1 uM after 20 mins by UV spectrophotometric analysis relative to control

SMILES	IC50 (A549 [1]) [µM]	IC50 (HeLa [2]) [µM]	IC50 (MCF7 [3]) [µM]	IC50 (HCT-116 [4]) [µM]	IC50 (HT-29 [5]) [µM]	also measured
Nc1nc(N)c2cc(CSC(=S)N3CCN(Cc4ccccc4)CC3)ccc2n1	3.31	8.35	8.46	4.91	8.49	–
Nc1nc(N)c2cc(CSC(=S)N3CCN(c4ccc(F)cc4F)CC3)ccc2n1	5.12	3.8	3.67	5.15	5.02	–
Nc1nc(N)c2cc(CSC(=S)N3CCN(c4ccccn4)CC3)ccc2n1	3.96	5.09	5.11	5.96	6.2	–
Nc1nc(N)c2cc(CSC(=S)N3CCN(c4ccc(C(F)(F)F)cc4)CC3)ccc2n1	–	–	7.4	–	–	IC50 (HT-29 [6]): > 20 µM; IC50 (HeLa [7]): > 20 µM; IC50 (HCT-116 [8]): > 20 µM; IC50 (A549 [9]): > 20 µM
Nc1nc(N)c2cc(CSC(=S)N3CCN(c4ccccc4[N+](=O)[O-])CC3)ccc2n1	4.36	4.88	4.35	5.52	4.31	–
COc1ccc(N2CCN(C(=S)SCc3ccc4nc(N)nc(N)c4c3)CC2)cc1	1.59	1.66	1.58	2.27	1.77	inhibition [10]: 24%; Activity (HCT-116 [11]): 52.36%; inhibition [12]: 15.2%; Ratio (HCT-116 [13]): 0.76; Activity (HCT-116 [14]): Active; IC50 (Dihydrofolate reductase): 5960 nM; Activity (HCT-116 [15]): 33.34%; Activity (HCT-116 [16]): 14.29%
Nc1nc(N)c2cc(CSC(=S)N3CCN(c4ccccc4)CC3)ccc2n1	2.97	2.84	2.95	4.12	2.76	–
Cc1ccc(N2CCN(C(=S)SCc3ccc4nc(N)nc(N)c4c3)CC2)cc1	2.19	2.13	2.48	5.51	3.02	–
Nc1nc(N)c2cc(CSC(=S)N3CCN(c4ccccc4Cl)CC3)ccc2n1	3.61	4.05	3.19	5.49	3.9	–
Nc1nc(N)c2cc(CSC(=S)N3CCN(c4ccc([N+](=O)[O-])cc4)CC3)ccc2n1	1.91	1.66	1.47	4.68	3.32	inhibition [10]: 29%; Activity (HCT-116 [11]): 44.74%; inhibition [12]: 14.1%; Ratio (HCT-116 [13]): 0.67; Activity (HCT-116 [14]): Active; IC50 (Dihydrofolate reductase): 1610 nM; Activity (HCT-116 [15]): 39.46%; Activity (HCT-116 [16]): 15.8%
Nc1nc(N)c2cc(CSC(=S)N3CCN(c4ccc(F)cc4)CC3)ccc2n1	2.04	1.84	1.92	3.27	2.05	inhibition [10]: 35%; Activity (HCT-116 [11]): 46.63%; inhibition [12]: 19.9%; Ratio (HCT-116 [13]): 0.45; Activity (HCT-116 [14]): Active; IC50 (Dihydrofolate reductase): 2110 nM; Activity (HCT-116 [15]): 39.22%; Activity (HCT-116 [16]): 14.15%
Nc1nc(N)c2cc(CSC(=S)N3CCN(c4ccc(O)cc4)CC3)ccc2n1	4.21	5.18	5.09	5.98	–	IC50 (HT-29 [6]): > 20 µM
CC[C@@]1(O)C(=O)OCc2c1cc1n(c2=O)Cc2cc3ccccc3nc2-1 [CAMPTOTHECIN]	–	–	–	–	–	Ratio (HCT-116 [13]): 0.64
CN1CCN(C(=S)SCc2ccc3nc(N)nc(N)c3c2)CC1	9.2	–	–	–	–	IC50 (HT-29 [6]): > 20 µM; IC50 (HeLa [7]): > 20 µM; IC50 (HCT-116 [8]): > 20 µM; IC50 (MCF7 [17]): > 20 µM
Nc1nc(N)c2cc(CSC(=S)N3CCN(c4ncccn4)CC3)ccc2n1	4.01	4.36	4.19	5.84	4.72	–
Nc1nc(N)c2cc(CSC(=S)N3CCN(c4ccc(Cl)c(Cl)c4)CC3)ccc2n1	2.94	3.06	2.37	6.68	3.48	–
Cc1ccc(N2CCN(C(=S)SCc3ccc4nc(N)nc(N)c4c3)CC2)c(C)c1	3	3.19	3.12	4.07	2.97	–
O=c1[nH]cc(F)c(=O)[nH]1 [FLUOROURACIL]	3.52	43.7	32.2	5.53	24.5	Activity (HCT-116 [11]): 45.44%; Activity (HCT-116 [14]): inactive; Activity (HCT-116 [15]): 47.75%; Activity (HCT-116 [16]): 6.81%
Nc1nc(N)c2cc(CSC(=S)N3CCN(c4ccc(Cl)cc4)CC3)ccc2n1	5.21	6.99	4.88	7.38	7.48	–
Cc1nc(=O)c2cc(CN(C)c3ccc(C(=O)N[C@@H](CCC(=O)O)C(=O)O)s3)ccc2[nH]1	–	–	–	–	–	inhibition [18]: 94.2%
CC(=O)c1ccc(N2CCN(C(=S)SCc3ccc4nc(N)nc(N)c4c3)CC2)cc1	2.55	2.04	2.49	8.26	2.28	–
Nc1nc(N)c2cc(CSC(=S)N3CCN(c4ccccc4F)CC3)ccc2n1	6.46	6.66	4.84	–	5.42	–
Cc1ccccc1N1CCN(C(=S)SCc2ccc3nc(N)nc(N)c3c2)CC1	3.92	–	4.23	11.8	2.95	–
Nc1nc(N)c2cc(CSC(=S)N3CCN(C4CCCCC4)CC3)ccc2n1	4.71	5.96	6.8	8.4	4.05	–
